Laboratory results taken from patent US5108916A, “Process for stereoselectively hydrolyzing, transesterifying or esterifying with immobilized isozyme of lipase from Candida rugosa” (priority 1989, dated 1992).
Values joined by “and” are separate entries in the source; they are usually repeats but may differ in a detail not shown here. Equal values may be shown once. Read-outs that look alike come from different tables or passages of the source.

How the values were obtained:
Lipase MY [1] = test: Effect of reducing agents on immobilized Lipase MY in the presence of HPPA; format: biochemical, Candida rugosa; conditions: for prevention of loss of enzyme activity: repeated batches, Tables 3-5
Solubility of HPPA-Me = format: physicochemical
Lipase MY [2] = test: Product inhibition of Lipase MY; format: biochemical, Candida rugosa
Protocol: Two hydrolysis reactions were run to determine the effect of methanol, produced as a by-product of the hydrolysis of HPPA-Me, on the activity of Lipase MY. (R,S)-HPPA-Me, 1.5 moles, 1 L of 1 M NH4 OAc, pH 6.5, 150 ml toluene, and 2 g Lipase MY were placed in flasks with and without 0.75 moles of methanol. The mixtures were shaken gently and sampled at various times to determine the concentrations of each of the stereoisomers of HPPA which were produced.
To determine the effect of the (R)-HPPA produced during the hydrolysis of (R,S)-HPPA-Me on the activity of Lipase MY, a series of three experiments were performed. Ammonium acetate, 200 ml, 0.04 M, pH 7.0, was combined with 30 ml of toluene, 40 mmoles (R,S)-HPPA-Me, 25 mg Lipase MY, and 0, 30, or 100 mM (R)-HPPA. The reactions were shaken gently for 136 hours and sampled at various times to determine the concentrations of each of the stereoisomers of HPPA which were produced.

[3] = 2 mg/ml in 1M HPPA, 4 days, control enzyme 100%, HPPA treated 70.4%

O=S([O-])S(=O)[O-].[Na+].[Na+] [Na2 S2 O4, sodium hydrosulfite]
Relative Activity (Lipase MY [1]; 8 mg/ml, 5760 min): 111%
Relative Activity (Lipase MY [1]; 16 mg/ml, 5760 min): 112%
Conversion (%) of HPPA-Me to HPPA (Lipase MY [1]; Na2S2O4 25 mg, batches as E39): 25% and 21% and 34% and 23% and 29% and 18% and 31%
prevention of loss of enzyme activity (Lipase MY [1]): effective at preventing loss of enzyme activity

tetrabutylammonium cyanoborohydride [Bu4 N CNBH3]
Relative Activity (Lipase MY [1]; 1m hppa phosphate, pH 6.5, 5760 min, 5760 min): 83% and 81% and 88% and 85%

COC(=O)C(C)Oc1ccc(O)cc1 (racemic) [HPPA-ME, (R,S)-(+)-methyl-2-(4-hydroxyphenoxy)-propionate]
solubility (Solubility of HPPA-Me; aqueous solution, pH 6.5, read-out: solubility): < 25 mM
Solubility (HPPA-ME) (Solubility of HPPA-Me; in trichlorotrifluoroethane): insoluble
solubility (Solubility of HPPA-Me; organic solvent or mixture, in 1,1,2 trichloroethane, read-out: Solubility (HPPA-ME)): 558 mg/mL
solubility (Solubility of HPPA-Me; organic solvent or mixture, in 1,2-dibromoethane, read-out: Solubility (HPPA-ME)): 566 mg/mL
solubility (Solubility of HPPA-Me; organic solvent or mixture, in carbon tetrachloride, read-out: Solubility (HPPA-ME)): 33 mg/mL
solubility (Solubility of HPPA-Me; organic solvent or mixture, in cumene, read-out: Solubility (HPPA-ME)): 20 mg/mL
solubility (Solubility of HPPA-Me; organic solvent or mixture, in cyclohexane, read-out: Solubility (HPPA-ME)): 66.4 mg/mL
solubility (Solubility of HPPA-Me; organic solvent or mixture, in fluorobenzene, read-out: Solubility (HPPA-ME)): 156 mg/mL
solubility (Solubility of HPPA-Me; organic solvent or mixture, in tetrachloroethylene, read-out: Solubility (HPPA-ME)): 1.4 mg/mL
solubility (Solubility of HPPA-Me; organic solvent or mixture, in toluene, read-out: Solubility (HPPA-ME)): 236 mg/mL

CC(Oc1ccc(O)cc1)C(=O)O (stereo not drawn) [HPPA, 2-(4-hydroxyphenoxy)propionic acid]
reduction in enzyme activity (Lipase MY [2]; various amounts (30, 100 mM) at the beginning): 10-67%
solubility (Solubility of HPPA-Me; aqueous solution, pH 6.5): high solubility

O=S([O-])[O-].[Na+].[Na+] [Na2 SO3, sodium sulfite]
Relative Activity (Lipase MY [1]; [3]): 95%
Relative Activity (Lipase MY [1]; 4 mg/ml): 101%
Relative Activity (Lipase MY [1]; 8 mg/ml, 5760 min): 110%
Relative Activity (Lipase MY [1]; 16 mg/ml, 5760 min): 111%
Conversion (%) of HPPA-Me to HPPA (Lipase MY [1]; Na2SO3 10 mg, batches as E44): 26% and 20% and 16% and 14% and 13% and 15%
prevention of loss of enzyme activity (Lipase MY [1]): Neither sodium sulfite nor cystine was effective

N[C@@H](CSSC[C@H](N)C(=O)O)C(=O)O [cystine]
Relative Activity (Lipase MY [1]; [3]): 83%
Relative Activity (Lipase MY [1]; 4 mg/ml): 76%
Relative Activity (Lipase MY [1]; 8 mg/ml, 5760 min): 81%
Relative Activity (Lipase MY [1]; 16 mg/ml, 5760 min): 83%
conversion of HPPA-Me (quantity not headed in Table 5) (Lipase MY [1]; Cystine 2.5 mg, 15 hrs, batch #: 1, 5, 9, 15, 16, 20, 21, 22): 30 and 19 and 17 and 16 and 20
prevention of loss of enzyme activity (Lipase MY [1]): Neither sodium sulfite nor cystine was effective

CO [methanol]
decrease in activity of the enzyme against HPPA-Me (Lipase MY [2]; 0.5 equivalents at the start of the reaction): 39%
